Like-named read-outs stand apart in the source and are kept apart here.
What was measured:
PLA2 = settings: Salari et al., Mol. Pharm. 28:546 (1985), cited from earlier work
phospholipase A2 = experiment: stimulation of phospholipase A2 activity in vitro; type: biochemical; settings: in vitro (unpublished results)
Text: As used herein phospholipase A2 activating agents, PLAA, are defined as agents which induce phospholipase A2 activity. A variety of procedures are known in the art for assaying an agent for PLAA activity. These include, but are not limited to, assaying cultured endothelial cells or smooth muscle cells for the release of arachidonic acid in the presence of the agent as well as cell free systems which utilize 1-palmitoyl-2-[14C]arachidonyl-sn-glycero-3-phospho-[methy13H]choline to assay for PLA2 activity (see Clark et al., J. Biol. Chem. 261:10713-10718 (1986) and Clark et al., Biochem. J. 250:125-132 (1988).

C6 glioma cells = experiment: rat air pouch glioma model: tumor thickness, weight and necrosis; type: in vivo
Protocol: C6 glioma cells (10^7) were injected into rats and allowed to grow for two weeks. The average thickness of the tumors was approximately 7±2 mm in thickness. The animals were then treated with 500 μg of either agarose complexed PLAP peptide SEQ ID NO. 1 or agarose complexed PLAP-like peptide in which the two adjacent prolines were deleted. After three days of treatment, the animals were given a second injection of the peptide and the tumors were measured on day 6 of the treatment regimen.
C6 glioma cells (10^7) were injected into rats and allowed to grow for two weeks as in FIG. 1. By day 14, the tumors were approximately 7 mm in thickness. The animals were then given the indicated concentrations of the agarose complexed PLAP peptide. The thickness of the tumor was monitored after three days of treatment and the values are shown as a percentage of reduction in the tumor cell mass.
Sprague-Dawley rats were injected with 10^6 C-6 glioma cells. The tumors were allowed to grow for 14 days prior to injection of 500 μg of agarose complexed PLAP peptide. Tumor thickness was measured after 3 and 6 days of treatment.
G6 glioma cells, derived from a glioma induced in the Wistar strain of rat and obtained from the American Type Culture Collection (ATCC) were maintained in tissue culture. The cell cultures were grown to confluence in 75 cm^2 tissue culture flasks, detached from the flasks by addition of trypsin/EDTA, washed twice in fresh culture medium, and resuspended at a final concentration of 2×10^6 cells per ml.
Air pouches were formed in female Sprague-Dawley rats (average age 6-8 weeks; average weight 180 grams). Briefly, 20 cc's of sterile air was injected into the subcutaneous tissues on the dorsum of the animal to form an air filled pouch. Inflation of the pouches was maintained by re-injection of sterile air every other day. Pouches were ready for use on day 7.
Suspension of cultured glioma cells (1×10^6 -1×10^7 cells) were injected into the air pouches. By day 14, the tumors typically were of sufficient size to be used as described below.
Animals were injected with 500 μgrams of PLAP peptide bound to agarose beads. A similar number of rats were injected with unmodified agarose beads as a control. In order to ensure uniform distribution of the bound peptide, the total volumes injected were increased to 5 ml by the addition of sterile saline immediately prior to injection. Since tumor growth was characterized by formation of large effusions containing high levels of eicosanoids, the tumors were aspirated immediately prior to injection of PLAP peptide or agarose beads alone.
Seventy-two hours after injection, the animals were euthanized by using CO2 gas. The tumor effusions were aspirated and the tumor cell numbers were determined using a Coulter counter. The samples were frozen and stored at -80° for later eicosanoid assay. The tumor masses were removed through an incision made in the dorsum of the animal and weighed. […]
To determine the effect of concentration of PLAP peptide on tumor cell number and tumor size, Sprague-Dawley rats were injected with 10^6 C-6 glioma cells as described above, and were then treated with either 0, 0.25, 0.5, or 1 mg/rat PLAP. Three days after treatment, the maximum thickness of the tumors was measured.
To determine the length of the effectiveness of administering PLAP peptide, Sprague-Dawley rats were injected with 10^6 C-6 glioma cells as described above. […] Tumor thickness was measured 3 and 6 days after treatment.

[1] = system: eicosanoids in exudates obtained from tumors; experiment: measurement of eicosanoids in tumor exudates; type: in vivo, rat; settings: 72 hours after injection
Protocol: Seventy-two hours after injection, the animals were euthanized by using CO2 gas. The tumor effusions were aspirated and the tumor cell numbers were determined using a Coulter counter. The samples were frozen and stored at -80° for later eicosanoid assay. The tumor masses were removed through an incision made in the dorsum of the animal and weighed. Samples of tumor tissues were stored in formalin for routine histology or snap-frozen in liquid N2 for immunocytochemistry.
Eicosanoid levels in exudates obtained from tumors were determined using enzyme-lined immunoassay kits purchased from Cayman Chemical Company (Ann Arbor, Mich.) and used as recommended by the supplier. Calculations of the amounts of eicosanoids were made using EPA software purchased from the same company.

mononuclear cells = experiment: immunocytochemical analysis of tumors (mononuclear cell infiltrate); type: in vivo, rat; settings: frozen sections of tumor tissues reacted with MAbs
Text: Snap-frozen tissue samples were sectioned on a cryotome, fixed in acetone, blocked with levamisole, and then reacted with monoclonal antibodies to cell surface determinants expressed by mononuclear cells. After washing, tissue sections were reacted with biotin-labelled rat anti-mouse IgG monoclonal antibodies, alkaline phosphate-labelled avidin-biotin complex (ABC, Vecta, Burlinghame, Calif.) and color developed by the addition of appropriate substrate. Sections were then mounted in Permount (Fisher Scientific) and read in an Olympus light microscope.
To determine whether PLAP-induced tumor necrosis was associated with specific cellular events, frozen sections of tumor tissues were reacted with MAbs directed at subpopulations of mononuclear cells. […] Thus, PLAP-induced tumor necrosis appears to be mediated through enhanced NK/LAK cell activation.

[2] = system: MTVL murine mammary tumor cells; experiment: survival of mice injected with mammary tumor cells; type: in vivo, Balb C mice; settings: 200 μg agarose bound peptide 1 and 4 days after tumor cells; vs agarose beads alone; p<0.001 (FIG. 4)
Protocol: (§1) Balb C mice were injected with 10^6 MTVL murine mammary tumor cells. The mice were treated with 200 μg of agarose complexed PLAP peptide 1 and 4 days after injection of the tumor cells. The animals were checked daily for survival. The results obtained are the average for twenty animals in each group. Animals that received no treatment (.smallcircle.),animals that received PLAP ( ) p<0.001.
The effectiveness of stimulating tumor necrosis for tumors other than gliomas was tested. To test effectiveness of the present methods in treating neoplastic mammary cells, Balb C mice were injected with 10^6 MTVL murine mammary tumor cells as described above for the glioma cells. The mice were treated with 200 μg of agarose bound PLAP peptide 1 and 4 days after injection of the tumor cells. The animals were checked daily for survival. FIG. 4 provides the average of the results obtained for twenty animals in each group.

[3] = system: LL-2 murine lung tumor cells; experiment: survival of mice injected with lung tumor cells; type: in vivo, C57 Bl/6 mice; settings: 200 μg agarose bound peptide 1 and 4 days after tumor cells; vs agarose beads alone; p<0.0001 (FIG. 5)
Protocol: as §1, with “C57 Bl/6” for “Balb C”, “LL-2” for “MTVL”, “lung” for “mammary”, “result” for “results”, “(.smallcircle.), animals” for “(.smallcircle.),animals”, “p<0.0001.” for “p<0.001.”
To test the effectiveness of the present methods in treating neoplastic lung cells, C57 Bl/6 mice were injected with 10^6 LL-2 murine lung tumor cells as described above for the glioma cells. The mice were treated with 200 μg of agarose bound PLAP peptide 1 and 4 days after injection of the tumor cells. The animals were checked daily for survival. FIG. 5 provides the average of the result obtained for twenty animals in each group were used.

neutrophil = settings: Bomalaski et al., J. Immuno. (1989); cited from earlier work

## CC[C@H](C)[C@H](NC(=O)CN)C(=O)NCC(=O)N[C@@H](C)C(=O)N[C@H](C(=O)N[C@@H](CC(C)C)C(=O)N[C@@H](CCCCN)C(=O)N[C@H](C(=O)N[C@@H](CC(C)C)C(=O)N[C@H](C(=O)N[C@H](C(=O)NCC(=O)N[C@@H](CC(C)C)C(=O)N1CCC[C@H]1C(=O)N[C@@H](C)C(=O)N[C@@H](CC(C)C)C(=O)N[C@H](C(=O)N[C@@H](CO)C(=O)N[C@@H](Cc1c[nH]c2ccccc12)C(=O)N[C@H](C(=O)N[C@@H](CCCCN)C(=O)N[C@@H](CCCNC(=N)N)C(=O)N[C@@H](CCCCN)C(=O)N[C@@H](CCCNC(=N)N)C(=O)N[C@@H](CCC(N)=O)C(=O)N[C@@H](CCC(N)=O)C(N)=O)[C@@H](C)CC)[C@@H](C)CC)[C@@H](C)O)[C@@H](C)O)C(C)C)C(C)C [melittin]
PLA2
  stimulation of PLA2 activity: shown to stimulate PLA2 activity
PLA2; listed as Melittin
  stimulation of PLA2 activity: has phospholipase activating activity

## GLU-SER-PRO-LEU-ILE-ALA-LYS-VAL-LEU-THR-THR-GLU-PRO -PRO-ILE-ILE-THR-PRO-VAL-ARG-ARG-(THR-LEU) [PLAP peptide]
Phospholipase A2
  stimulation of phospholipase A2 activity in vitro: stimulated phospholipase A2 activity
C6 glioma cells; rats, 0, 0.25, 0.5 or 1 mg/rat, maximum tumor thickness three days after treatment (FIG. 2)
  reduction in tumor size as a function of amount administered: concentration dependent
C6 glioma cells; rats, 500 μg agarose bound peptide, tumor thickness 3 and 6 days after treatment (FIG. 3)
  duration of tumor necrosis: observed to continue even at 6 days
C6 glioma cells; rats, 500 μg agarose complexed peptide, second injection after three days, tumors measured on day 6 (FIG. 1)
  tumor regression / size of the tumor: profound effect on the size of the tumor
C6 glioma cells; rats, 500 μg peptide bound to agarose beads, 72 hours
  tumor weight compared with control animals: reduction in tumor weight
C6 glioma cells; rats, 500 μg peptide bound to agarose beads, tumor tissues examined after 72 hours
  tumor necrosis: caused significant necrosis
[1]
  amount of LTC4 in exudates from tumors compared with those injected with agarose beads: No changes
  amount of PGE2 in treated tumors compared with tumors injected with agarose beads: 50 fold
  amount of PGI2 in exudates from tumors compared with those injected with agarose beads: No changes
  amount of leukotriene B4 (LTB4) in treated tumors compared with tumors injected with agarose beads: 20 fold
Mononuclear cells
  OXI (cytotoxic T lymphocyte) and NRK-1 positive (NK) cells in the infiltrate: high numbers
  mononuclear cell infiltrate in tumor tissues: stimulated mononuclear cell infiltrate
[2]
  survival of mice injected with mammary tumor cells: increased the survival
[3]
  survival of mice injected with lung tumor cells: increased the survival

## TNF-alpha
PLA2
  stimulation of PLA2 activity: shown to stimulate PLA2 activity

B1: PLAP: mouse phospholipase A2 activating protein, molecular mass approximately 28,000 (protein, UniProt P27612 1-794, looked up)
Phospholipase A-2-activating …: MASGASRYRLSCSLPGHELDVRGLVCCLYPPGAFVSVSRDRTTRLWAPDSPNRGFTEMHCMSGHSNFVSCVCIIPSSDIYPHGLIATGGNDHNICIFSLDSPMPLYILKGHKDTVCSLSSGKFGTLLSGSWDTTAKVWLNDKCMMTLQGHTAAVWAVKILPEQGLMLTGSADKTIKLWKAGRCERTFLGHEDCVRGLAILSETEFLSCANDASIRRWQITGECLEVYFGHTNYIYSISVFPNSKDFVTTAEDRSLRIWKHGECAQTIRLPAQSIWCCCVLENGDIVVGASDGIIRVFTESEERTASAEEIKAFERELSQATIDSKTGDLGDINAEQLPGREHLSEPGTREGQTRLIRDGERVEAYQWSVSDGRWIKIGDVVGSSGANQQTSGKVLYEGKEFDYVFSIDVNEGGPSYKLPYNVSDDPWLVAYNFLQKNDLNPMFLDQVAKFIIDNTKGQTLGLGNTSFSDPFTGGGRYVPGTSGPSNTVQTADPFTGAGRYMPGSAGMDTTMTGVDPFTGNSAYRSAASKTVNIYFPKKEALTFDQANPTQILGKLKELNGTAPEEKKLTEDDLVLLEKILSLICNNSSEKPTAQQLQILWKAINWPEDIVFPALDILRLSIKHPNVNENFCNEKGDQFSSHLINLLNPKGKPANQLLALRTFCNCFVSQAGQKLMMSQRESLMSHAIELKSGSNKNIHIALATLTLNYSVCFHKDHNIEGKAQCLSVISTILEVVQDLEATFRLLVALGTLISDDSNAIQLAKSLGVDSQIKKYVSVSEPAKVSECCRLVLHLL
neutrophil
  neutrophil aggregation: stimulates neutrophil aggregation
  neutrophil chemokinesis: stimulates

Source: US5527775A, “Reduction of mammalian neoplasms with phospholipase A2 activating substances” (Enzon, Inc., priority 1994, dated 1996)
